Measured values reported in patent US20040231558A1, “Water-color ink” (priority 2001, published 2004).

Experiments:
Type in all cases: physicochemical
[1] = Evaluation of light fastness-1 (OD value of printed portion after 100 hours xenon fadeometer); settings: for (A)-1 light fastness-1: ink prepared as in Example 1 from the salt named in the row, OD value of printed portion after 100 hours xenon fadeometer
Protocol: (§1) The prepared ink was filled in an ink cartridge for a piezo-type ink-jet printer EM-930C (manufactured by Seiko Epson). The printing was performed with this printer, and the light fastness was evaluated. Further, the storage stability of the ink was evaluated.
(A)-1 Evaluation of Light Fastness-1
Printing density (OD value) was measured after irradiating a printed portion with light for 100 hours using a xenon fadeometer (manufactured by Suga Shikenki) to evaluate the light fastness.

[2] = Evaluation of storage stability of ink (40° C. for 3 months, insoluble matter and clogging); settings: recording liquid stored at 40° C. for 3 months; insoluble matter and clogging
Protocol: as §1
(C) Evaluation of Storage Stability of Ink:
After a recording liquid was stored at 40° C. for 3 months, it was observedwhether or not an insoluble matterwas precipitated, and whether or not clogging occurred after continuous recording with the foregoing printer for a long period of time.

[3] = Evaluation of moisture resistance (image-recorded paper at 40° C. and humidity 85%, visual observation); settings: for (B) moisture resistance: image-recorded paper at 40° C. and humidity 85%, visually observed
[4] = Evaluation of light fastness-2 (OD value of printed portion after 400 hours xenon fadeometer); settings: ink prepared as in Example 1 from the salt named in the row; OD value of printed portion after 400 hours xenon fadeometer
Protocol: as §1
(A)-2 Evaluation of Light Fastness-2
Printing density (OD value) was measured after irradiating a printed-portion with light for 400 hours using axenon fadeometer (manufactured by Suga Shikenki), and the light fastness was evaluated.

[5] = ink prepared as in Example 1, for comparative inks in comparison to the ink of the invention

O=C(O)c1nn(-c2ccc(S(=O)(=O)O)cc2)c(O)c1N=Nc1ccc(S(=O)(=O)O)cc1 [C. I. Acid Yellow 23, reference compound]
light fastness (in words) [1, 5]: poor | (C) storage stability [2]: ◯ | moisture resistance (in words) [3, 5]: poor

Cc1c(N=Nc2cc(C(=O)O)ccc2C(=O)O)c(O)n(CCCNc2nc(Cl)nc(NCCCn3c(O)c(N=Nc4cc(C(=O)O)ccc4C(=O)O)c(C)c(C#N)c3=O)n2)c(=O)c1C#N [Compound 247]
(A)-1 light fastness-1 [1]: ⊚ | (A)-2 light fastness-2 [4]: ◯ | (C) storage stability [2]: ◯ | (B) moisture resistance [3]: ⊚

N#Cc1c(C(F)(F)F)c(N=Nc2cc(C(=O)O)ccc2C(=O)O)c(O)n(CCNc2nc(Cl)nc(NCCn3c(O)c(N=Nc4cc(C(=O)O)ccc4C(=O)O)c(C(F)(F)F)c(C#N)c3=O)n2)c1=O [Compound 248]
(A)-1 light fastness-1 [1]: ⊚ | (A)-2 light fastness-2 [4]: ⊚ | (C) storage stability [2]: Δ | (B) moisture resistance [3]: ⊚

Cc1c(N=Nc2cc(C(=O)O)ccc2C(=O)O)c(O)n(CCCCCCNc2nc(Cl)nc(NCCn3c(O)c(N=Nc4cc(C(=O)O)ccc4C(=O)O)c(C)c(C#N)c3=O)n2)c(=O)c1C#N [Compound 249]
(A)-1 light fastness-1 [1]: ⊚ | (A)-2 light fastness-2 [4]: ◯ | (C) storage stability [2]: Δ | (B) moisture resistance [3]: ⊚

CCc1c(N=Nc2cc(C(=O)O)ccc2C(=O)O)c(O)n(CCNc2nc(Cl)nc(NCCn3c(O)c(N=Nc4cc(C(=O)O)ccc4C(=O)O)c(C(F)(F)F)c(C#N)c3=O)n2)c(=O)c1C#N [Compound 250]
(A)-1 light fastness-1 [1]: ⊚ | (A)-2 light fastness-2 [4]: ◯ | (C) storage stability [2]: Δ | (B) moisture resistance [3]: ⊚

CCc1c(N=Nc2cc(C(=O)O)ccc2C(=O)O)c(O)n(CCNc2nc(Cl)nc(NCCn3c(O)c(N=Nc4cc(C(=O)O)ccc4C(=O)O)c(CC)c(C#N)c3=O)n2)c(=O)c1C#N [Compound 251]
(A)-1 light fastness-1 [1]: ⊚ | (A)-2 light fastness-2 [4]: ⊚ | (C) storage stability [2]: Δ | (B) moisture resistance [3]: ⊚

Cc1c(N=Nc2cc(C(=O)O)ccc2C(=O)O)c(O)n(CCNc2nc(Cl)nc(NCCn3c(O)c(N=Nc4cc(C(=O)O)ccc4C(=O)O)c(C)c(C(N)=O)c3=O)n2)c(=O)c1C(N)=O [Compound 252]
(A)-1 light fastness-1 [1]: ⊚ | (A)-2 light fastness-2 [4]: ◯ | (C) storage stability [2]: Δ | (B) moisture resistance [3]: ⊚

CCOC(=O)Cc1c(N=Nc2cc(C(=O)O)ccc2C(=O)O)c(O)n(CCNc2nc(Cl)nc(NCCn3c(O)c(N=Nc4cc(C(=O)O)ccc4C(=O)O)c(CC(=O)OCC)c(C#N)c3=O)n2)c(=O)c1C#N [Compound 255]
(A)-1 light fastness-1 [1]: ⊚ | (A)-2 light fastness-2 [4]: ◯ | (C) storage stability [2]: ◯ | (B) moisture resistance [3]: ⊚

Cc1c(N=Nc2c(C(=O)O)cccc2C(=O)O)c(O)n(CCNc2nc(Cl)nc(NCCn3c(O)c(N=Nc4c(C(=O)O)cccc4C(=O)O)c(C)c(C#N)c3=O)n2)c(=O)c1C#N [Compound 256]
(A)-1 light fastness-1 [1]: ⊚ | (A)-2 light fastness-2 [4]: ◯ | (C) storage stability [2]: Δ | (B) moisture resistance [3]: ⊚

Cc1c(N=Nc2cccc(C(=O)O)c2C(=O)O)c(O)n(CCCNc2nc(Cl)nc(NCCCn3c(O)c(N=Nc4cccc(C(=O)O)c4C(=O)O)c(C)c(C#N)c3=O)n2)c(=O)c1C#N [Compound 260]
(A)-1 light fastness-1 [1]: ⊚ | (A)-2 light fastness-2 [4]: ◯ | (C) storage stability [2]: Δ | (B) moisture resistance [3]: ⊚

N#Cc1c(-c2ccccc2)c(N=Nc2cc(C(=O)O)ccc2C(=O)O)c(O)n(CCNc2nc(Cl)nc(NCCn3c(O)c(N=Nc4cc(C(=O)O)ccc4C(=O)O)c(-c4ccccc4)c(C#N)c3=O)n2)c1=O [Compound 261]
(A)-1 light fastness-1 [1]: ⊚ | (A)-2 light fastness-2 [4]: ◯ | (C) storage stability [2]: Δ | (B) moisture resistance [3]: ⊚

Cc1c(N=Nc2cc(C(=O)O)ccc2C(=O)O)c(O)n(CCNc2nc(NCCn3c(O)c(N=Nc4cc(C(=O)O)ccc4C(=O)O)c(C)c(C#N)c3=O)nc(NCCn3c(O)c(N=Nc4cc(C(=O)O)ccc4C(=O)O)c(C)c(C#N)c3=O)n2)c(=O)c1C#N [Compound 262]
(A)-1 light fastness-1 [1]: ⊚ | (A)-2 light fastness-2 [4]: ◯ | (C) storage stability [2]: Δ | (B) moisture resistance [3]: ⊚

Cc1c(N=Nc2cc(C(=O)O)ccc2C(=O)O)c(O)n(CCCCCCNc2nc(NCCCCCCn3c(O)c(N=Nc4cc(C(=O)O)ccc4C(=O)O)c(C)c(C#N)c3=O)nc(NCCCCCCn3c(O)c(N=Nc4cc(C(=O)O)ccc4C(=O)O)c(C)c(C#N)c3=O)n2)c(=O)c1C#N [Compound 264]
(A)-1 light fastness-1 [1]: ⊚ | (A)-2 light fastness-2 [4]: ◯ | (C) storage stability [2]: Δ | (B) moisture resistance [3]: ⊚

N#Cc1c(C(F)(F)F)c(N=Nc2cc(C(=O)O)ccc2C(=O)O)c(O)n(CCNc2nc(NCCn3c(O)c(N=Nc4cc(C(=O)O)ccc4C(=O)O)c(C(F)(F)F)c(C#N)c3=O)nc(NCCn3c(O)c(N=Nc4cc(C(=O)O)ccc4C(=O)O)c(C(F)(F)F)c(C#N)c3=O)n2)c1=O [Compound 265]
(A)-1 light fastness-1 [1]: ⊚ | (A)-2 light fastness-2 [4]: ⊚ | (C) storage stability [2]: Δ | (B) moisture resistance [3]: ⊚

Cc1c(N=Nc2c(C(=O)O)cccc2C(=O)O)c(O)n(CCNc2nc(NCCn3c(O)c(N=Nc4c(C(=O)O)cccc4C(=O)O)c(C)c(C#N)c3=O)nc(NCCn3c(O)c(N=Nc4c(C(=O)O)cccc4C(=O)O)c(C)c(C#N)c3=O)n2)c(=O)c1C#N [Compound 267]
(A)-1 light fastness-1 [1]: ⊚ | (A)-2 light fastness-2 [4]: ◯ | (C) storage stability [2]: Δ | (B) moisture resistance [3]: ⊚

Cc1c(N=Nc2cccc(C(=O)O)c2C(=O)O)c(O)n(CCNc2nc(NCCn3c(O)c(N=Nc4cccc(C(=O)O)c4C(=O)O)c(C)c(C#N)c3=O)nc(NCCn3c(O)c(N=Nc4cccc(C(=O)O)c4C(=O)O)c(C)c(C#N)c3=O)n2)c(=O)c1C#N [Compound 268]
(A)-1 light fastness-1 [1]: ⊚ | (A)-2 light fastness-2 [4]: ◯ | (C) storage stability [2]: Δ | (B) moisture resistance [3]: ⊚

Cc1c(N=Nc2cc(C(=O)O)ccc2C(=O)O)c(O)n(CCCNc2nc(NCCn3c(O)c(N=Nc4cc(C(=O)O)ccc4C(=O)O)c(C)c(C#N)c3=O)nc(NCCn3c(O)c(N=Nc4c(C(=O)O)cccc4C(=O)O)c(C)c(C#N)c3=O)n2)c(=O)c1C#N [Compound 270]
(A)-1 light fastness-1 [1]: ⊚ | (A)-2 light fastness-2 [4]: ⊚ | (C) storage stability [2]: Δ | (B) moisture resistance [3]: ⊚

CCCCc1c(N=Nc2cc(C(=O)O)ccc2C(=O)O)c(O)n(CCNc2nc(NCCn3c(O)c(N=Nc4cc(C(=O)O)ccc4C(=O)O)c(CCCC)c(C#N)c3=O)nc(NCCn3c(O)c(N=Nc4cc(C(=O)O)ccc4C(=O)O)c(CCCC)c(C#N)c3=O)n2)c(=O)c1C#N [Compound 271]
(A)-1 light fastness-1 [1]: ⊚ | (A)-2 light fastness-2 [4]: ⊚ | (C) storage stability [2]: ◯ | (B) moisture resistance [3]: ⊚

CCc1c(N=Nc2cc(C(=O)O)ccc2C(=O)O)c(O)n(CCNc2nc(NCCn3c(O)c(N=Nc4cc(C(=O)O)ccc4C(=O)O)c(CC)c(C#N)c3=O)nc(NCCn3c(O)c(N=Nc4cc(C(=O)O)ccc4C(=O)O)c(CC)c(C#N)c3=O)n2)c(=O)c1C#N [Compound 273]
(A)-1 light fastness-1 [1]: ⊚ | (A)-2 light fastness-2 [4]: ⊚ | (C) storage stability [2]: ◯ | (B) moisture resistance [3]: ⊚

Cc1c(N=Nc2cc(C(=O)O)ccc2C(=O)O)c(O)n(CCCNc2nc(NCCn3c(O)c(N=Nc4cc(C(=O)O)ccc4C(=O)O)c(C)c(C#N)c3=O)nc(NCCn3c(O)c(N=Nc4c(C(=O)O)cccc4C(=O)O)c(C)c(C#N)c3=O)n2)c(=O)c1C#N [Compound 274]
(A)-1 light fastness-1 [1]: ⊚ | (A)-2 light fastness-2 [4]: ◯ | (C) storage stability [2]: Δ | (B) moisture resistance [3]: ⊚

CCCCc1c(N=Nc2cc(C(=O)O)ccc2C(=O)O)c(O)n(CCNc2nc(Cl)nc(NCCn3c(O)c(N=Nc4cc(C(=O)O)ccc4C(=O)O)c(CCCC)c(C#N)c3=O)n2)c(=O)c1C#N [Compound 278]
(A)-1 light fastness-1 [1]: ⊚ | (A)-2 light fastness-2 [4]: ◯ | (C) storage stability [2]: Δ | (B) moisture resistance [3]: ⊚

CCc1c(N=Nc2cc(C(=O)O)ccc2C(=O)O)c(O)n(CCCNC(=O)c2cc(C(=O)O)c(C(=O)NCCCn3c(O)c(N=Nc4cc(C(=O)O)ccc4C(=O)O)c(C)c(C#N)c3=O)cc2C(=O)O)c(=O)c1C#N [Compound 280]
(A)-1 light fastness-1 [1]: ⊚ | (A)-2 light fastness-2 [4]: ⊚ | (C) storage stability [2]: ◯ | (B) moisture resistance [3]: ⊚
